Measurements reported in US12319696B2, “2,6-dimethyl-n-((pyridin-4-yl)methyl)imidazo[1,2-b]pyridazin-8-amine and 2,5-dimethyl-n-[(pyridin-4-yl)methyl]pyrazolo[1,5-a]pyrimidin-7-amine derivatives for treating viral infections” (CUROVIR AB, priority 2018, dated 2025).

Assays:
[1] = test system: coxsackie B virus strain 1; experiment: Antiviral CPE inhibition assay in mammalian cell culture, Cox B1; format: cell-based; settings: for inhibition at 0.01 µM: read-out: Inh. at 10 nM, Cox B1; for inhibition at 0.1 µM: read-out: Inh. at 100 nM, Cox B1
enterovirus strain 71 = experiment: Antiviral CPE inhibition assay in mammalian cell culture, EV71; format: cell-based; settings: inhibition of viral CPE; for inhibition at 0.01 µM: 10 nM, read-out: Inh. at 10 nM, EV71; for inhibition at 0.1 µM: 100 nM, read-out: Inh. at 100 nM, EV71
[2] = test system: coxsackie B virus strain 2; experiment: Antiviral CPE inhibition assay in mammalian cell culture, Cox B2; format: cell-based; settings: for inhibition at 0.01 µM: read-out: Inh. at 10 nM, Cox B2; for inhibition at 0.1 µM: read-out: Inh. at 100 nM, Cox B2
polio virus strain 1 = experiment: organism not typed; format: cell-based; settings: for inhibition at 0.01 µM: read-out: Inh. at 10 nM, Polio 1; for inhibition at 0.1 µM: read-out: Inh. at 100 nM, Polio 1
[3] = test system: coxsackie B virus strain 3; experiment: Antiviral CPE inhibition assay in mammalian cell culture, Cox B3; format: cell-based; settings: for inhibition at 0.01 µM: read-out: Inh. at 10 nM, Cox B3; for inhibition at 0.1 µM: read-out: Inh. at 100 nM, Cox B3
enterovirus strain 6 = experiment: microbe, parasite or virus in culture; format: cell-based; settings: inhibition of viral CPE; for inhibition at 0.01 µM: 10 nM, read-out: Inh. at 10 nM, EV6; for inhibition at 0.1 µM: 100 nM, read-out: Inh. at 100 nM, EV6
[4] = test system: coxsackie B virus strain 5; experiment: Antiviral CPE inhibition assay in mammalian cell culture, Cox B5; format: cell-based; settings: for inhibition at 0.01 µM: read-out: Inh. at 10 nM, Cox B5; for inhibition at 0.1 µM: read-out: Inh. at 100 nM, Cox B5
enterovirus D68 = experiment: Antiviral CPE inhibition assay in mammalian cell culture, EV-D68; format: cell-based; settings: Enterovirus D, EVD68, inhibition of viral CPE; for inhibition at 0.01 µM: 10 nM, read-out: Inh. at 10 nM, EV-D68; for inhibition at 0.1 µM: 100 nM, read-out: Inh. at 100 nM, EV-D68
enterovirus strain 30 = experiment: Antiviral CPE inhibition assay in mammalian cell culture, EV30; format: cell-based; settings: inhibition of viral CPE; for inhibition at 0.01 µM: 10 nM, read-out: Inh. at 10 nM, EV30; for inhibition at 0.1 µM: 100 nM, read-out: Inh. at 100 nM, EV30
CYP3A4 = target: T1, CYP3A4 (Homo sapiens, UniProt P08684); experiment: In vitro CYP 3A4 enzyme inhibition in human liver microsomes by probe substrate method; format: in vitro ADME; settings: human liver microsomes 0.5 mg/mL; probe substrate Midazolam 5 μM
T1 construct: from tissue; host or cells: human liver microsomes
Method: In Vitro CYP 3A4 Enzyme Inhibition Study in Human Liver Microsomes by Probe Substrate Method
In vitro CYP3A4 enzyme inhibition assay was performed using Human liver microsomes at 0.5 mg/mL concentration. Ketoconazole was used as reference inhibitor and Midazolam was used as selective probe substrate for CYP 3A4 enzyme. Serial dilution of test/control items was prepared in potassium phosphate buffer (50 mM, pH 7.40) to obtain eight concentrations each in a 1:4 dilution pattern. The percentage of acetonitrile/DMSO was maintained at 2.5%/0.25% in 2.5× serially diluted control/test item solutions respectively. The final percentage of acetonitrile/DMSO was 1%/0.1% respectively. Intermediate solutions such as 10× working solution (5 mg/mL) of Human liver microsomal solution, 10× concentration of reference probe substrates in buffer, 5× concentrations of Cofactors (5.0 mM NADP+, 25.0 mM G-6-P, 3.0 IU/mL G-6-PDH and 10.0 mM MgCl2) were prepared in potassium phosphate buffer. The final concentration of liver microsomes in the reaction mixture was 0.5 mg/mL, cofactors was 1.0 mM NADP+, 5.0 mM G-6-P, 0.6 IU/mL G-6-PDH and 2.0 mM MgCl2. Midazolam was tested at 5 μM test concentration. 40 μL of 2.5× serially diluted test/control item solutions and 10 μL of […] liver microsomal solution were added to 96 well plate and incubated for 10 min at 37° C. with shaking condition (400 rpm) using Thermomixer. After pre incubation, 20 μL of potassium phosphate buffer, 10 μL of respective probe substrate working solution and 20 μL of cofactor mix was added.

[5] = Rat plasma protein binding (Rapid Equilibrium Dialysis); format: in vitro ADME; settings: pH 7.4, RED device, 37° C.
Method: (§1) Plasma protein binding study was performed using a Rapid Equilibrium Dialysis (RED) device containing dialysis membrane with a molecular weight cut-off of 8,000 Daltons. Each dialysis insert contained two chambers. The red chamber was for the plasma while the white chamber was for the buffer. Test items and Control items (Warfarin and Propranolol) were prepared at a required test concentration of 10 μM in Human/Rat plasma (pH adjusted to 7.40) using 10 mM DMSO stocks (final DMSO concentration was 0.1%). 300 μL of plasma sample was added into the sample chamber. 500 μL of buffer was added into the buffer chamber. After sealing the RED device with an adhesive film, incubation was done at 37° C. with shaking at 300 rpm for 4 h. Following incubation, an aliquot of 50 μL was removed from each well (plasma and buffer side) and diluted with equal volume of opposite matrix to nullify the matrix effect and subjected for sample extraction.
(§2) All samples were extracted by Protein Precipitation method by adding 200 μL of ice cold Acetonitrile and 50 μL of internal standard (Haloperidol at 0.1 μg/mL) solution. The tubes were vortex mixed thoroughly and centrifuged at 10000 rpm, 4° C. for 10 minutes. A clear supernatant of 200 μL of samples were submitted for LC-MS/MS analysis.

[6] = Human plasma protein binding (Rapid Equilibrium Dialysis); format: in vitro ADME; settings: pH 7.4, RED device, 37° C.
Method: as §1, §2

[7] = Metabolic stability in human liver microsomes; format: in vitro ADME; settings: 5 μM test item, 0.25 mg/mL microsomal protein
Method: (§3) Metabolic stability assay was carried out using Human/Rat liver microsomes. […] Test item/Control items were incubated with Human/Rat liver microsomes with cofactors and without cofactors. The reaction mixture (100 μL) was removed at specified time period and the reaction was stopped by addition of stop solution. The samples were extracted in presence of internal standard and were analyzed using LC-MS/MS. The percent of the test/Control item remaining after specified incubation period was calculated with respect to the peak area ratio at time 0 min. […] The reaction mixture was incubated further at 37° C. for specified incubation time points (With Cofactors: 0, 15, 30, 60 and 120 min; Without Cofactors: 0 and 120 min). 100 μL incubation samples of test items and Control items at specified incubation time points were transferred to respective tubes for sample extraction. Test and Control item specimens were extracted by Protein precipitation method. A 100 μL incubation sample at each time point was added to tubes containing 200 μL of ice-cold acetonitrile and 50 μL Haloperidol solution (0.5 μg/mL). Then the tubes were vortex mixed thoroughly and centrifuged at 10000 rpm for 10 minutes at 4° C. A clear supernatant of 200 μL of samples were submitted for LC-MS/MS analysis.

[8] = Metabolic stability in rat liver microsomes; format: in vitro ADME; settings: 5 μM test item, 0.25 mg/mL microsomal protein
Method: as §3

in vivo = experiment: in vivo; design: species or system Sprague Dawley rats; settings: male, Sprague Dawley, rat, po, 10 mg/kg
Method: 10 mg of the compound was weighed and transferred to graduated tube. Then 500 μL of DMA (5% v/v) was added, vortex mixed thoroughly and sonicated till test item was completely dissolved. Then 5 mL of PEG 200 (50% v/v) were added, and vortex mixed thoroughly. Thereafter, Sterile Water for Injection (SWFI) was added in small increments and vortex mixed thoroughly. Finally, the volume was made up to 10 mL with SWFI (45% v/v) to obtain a clear solution with final formulation strength of 1 mg/mL. […] Formulation was freshly prepared before the administration to animals. Adult healthy male Sprague Dawley rats aged 8-10 weeks were used for experimentation after a minimum 3 days of acclimation. Fasted animals were administered with test compound in recommended vehicle (5% DMA+50% PEG 200+45% SWFI) by oral route at a dose of 10 mg/kg body weight and at dose volume of 10 mL/kg body weight. Under mild isoflurane anesthesia, blood specimens were collected into pre-labeled tubes containing anticoagulant (K2EDTA—2 mg/mL blood) at different time points post dose.

T1 sequence (P08684 whole entry): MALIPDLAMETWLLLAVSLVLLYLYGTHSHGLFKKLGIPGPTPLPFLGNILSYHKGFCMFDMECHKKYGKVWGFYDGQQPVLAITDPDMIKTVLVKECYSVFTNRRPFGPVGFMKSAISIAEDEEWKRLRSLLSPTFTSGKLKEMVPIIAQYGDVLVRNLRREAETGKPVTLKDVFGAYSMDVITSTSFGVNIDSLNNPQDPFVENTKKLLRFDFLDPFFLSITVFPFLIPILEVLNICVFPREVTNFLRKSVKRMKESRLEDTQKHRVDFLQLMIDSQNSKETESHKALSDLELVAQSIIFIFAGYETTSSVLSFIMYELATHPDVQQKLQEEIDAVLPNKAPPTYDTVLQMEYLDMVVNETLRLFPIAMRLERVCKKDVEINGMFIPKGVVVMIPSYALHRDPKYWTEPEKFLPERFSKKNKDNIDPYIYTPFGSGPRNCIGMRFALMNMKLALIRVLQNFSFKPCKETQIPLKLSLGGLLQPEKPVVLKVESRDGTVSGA

SMILES | inhibition at 0.01 µM [1] [%] | inhibition at 0.1 µM [1] [%] | inhibition at 0.01 µM (enterovirus strain 71) [%] | inhibition at 0.1 µM (enterovirus strain 71) [%] | inhibition at 0.01 µM [2] [%] | inhibition at 0.1 µM [2] [%] | inhibition at 0.01 µM (polio virus strain 1) [%] | inhibition at 0.1 µM (polio virus strain 1) [%] | inhibition at 0.01 µM [3] [%] | inhibition at 0.1 µM [3] [%] | inhibition at 0.01 µM (enterovirus strain 6) [%] | inhibition at 0.1 µM (enterovirus strain 6) [%] | inhibition at 0.01 µM [4] [%] | inhibition at 0.1 µM [4] [%] | inhibition at 0.01 µM (enterovirus D68) [%] | inhibition at 0.1 µM (enterovirus D68) [%] | inhibition at 0.01 µM (enterovirus strain 30) [%] | inhibition at 0.1 µM (enterovirus strain 30) [%] | IC50 (CYP3A4) [µM] | fraction unbound at 4 h, 10 μM [5] | also measured
COc1ccc(-c2c(C)nc3c(NCc4ccnc(F)c4)cc(C)nn23)cc1OC [compound 2, 3-(3,4-dimethoxyphenyl)-N-((2-fluoropyridin-4-yl)methyl)-2,6-dimethylimidazo[1,2-b]pyridazin-8-amine] | 100 | 100 | 76 | 75 | 100 | 100 | 100 | 100 | 100 | 100 | 100 | 100 | 84 | 100 | 73 | 68 | 100 | 100 | > 25 | – | –
COc1ccc(-c2c(C)nn3c(NCc4ccncc4)cc(C)nc23)cc1OC [X, 3-(3,4-dimethoxyphenyl)-2,5-dimethyl-N-(pyridin-4-ylmethyl)pyrazolo[1,5-a]pyrimidin-7-amine, reference compound] | 100 | 100 | 82 | 82 | 100 | 100 | 100 | 100 | 100 | 100 | 100 | 100 | 100 | 100 | 86 | 86 | 100 | 100 | 0.97 | – | –
Cc1cc(NCc2ccnc(F)c2)n2nc(C)c(-c3ccc4c(c3)c(C)nn4C)c2n1 [Ex. 3, 3-(1,3-dimethyl-1H-indazol-5-yl)-2,5-dimethyl-N-[(2-fluoropyridin-4-yl)methyl]pyrazolo[1,5-a]pyrimidin-7-amine] | 68 | 100 | 82 | 81 | 100 | 100 | 100 | 100 | 100 | 100 | 88 | 100 | 48 | 100 | 76 | 70 | 100 | 100 | > 25 | 0.059 | fraction unbound at 4 h, 10 μM [6]: 0.022; % remaining after incubation for 60 min, Human microsomes [7]: 96.1%; % remaining after incubation for 60 min, Rat microsomes [8]: 99.4%
Cc1cc(CNc2cc(C)nc3c(-c4ccc5c(c4)c(C)nn5C)c(C)nn23)ccn1 [Ex. 4, 3-(1,3-dimethyl-1H-indazol-5-yl)-2,5-dimethyl-N-[(2-methylpyridin-4-yl)methyl]pyrazolo[1,5-a]pyrimidin-7-amine] | 100 | 100 | 76 | 79 | 100 | 100 | 100 | 100 | 100 | 100 | 100 | 100 | 74 | 100 | 81 | 70 | 100 | 100 | > 25 | 0.017 | AUC(0-inf) (in vivo): 27400 ± 10100 ng·h/mL; AUC(0-t) (in vivo): 25200 ± 10000 ng·h/mL; AUCextrap (in vivo): 8.5 ± 5.2%; Cmax (in vivo): 2500 ± 900 ng/mL; MRT last (in vivo): 6.7 ± 0.6 h; Tmax (in vivo): 1.3 ± 0.6 h; half-life (in vivo): 6.8 ± 1.5 h; fraction unbound at 4 h, 10 μM [6]: 0.015; % remaining after incubation for 60 min, Human microsomes [7]: 90.0%; % remaining after incubation for 60 min, Rat microsomes [8]: 84.0%
COc1ccc(-c2c(C)nc3c(NCc4ccnc(C)c4)cc(C)nn23)cc1OC [Ex. 1, 3-(3,4-dimethoxyphenyl)-2,6-dimethyl-N-((2-methylpyridin-4-yl)methyl)imidazo[1,2-b]pyridazin-8-amine] | 93 | 100 | 68 | 77 | 100 | 100 | 100 | 100 | 100 | 100 | 100 | 100 | 80 | 100 | 85 | 83 | 100 | 100 | 23.1 | – | –
